Experimental data: patent publication US12172995B2, “Substituted indole and indazole compounds” (BRISTOL-MYERS SQUIBB COMPANY, priority 2018, dated 2024)

Key:
Type in all cases: cell-based
human TLR9 = target: T1, human TLR9 (Homo sapiens, UniProt Q9NR96); assay: TLR9 inhibition reporter assay (HEK-Blue SEAP); conditions: HEK-Blue cells overexpressing human TLR9, stimulated with ODN2006 5 nM, 22 hour incubation
T1 construct: host or cells: HEK-Blue cells
T1 sequence (Q9NR96 26-1032): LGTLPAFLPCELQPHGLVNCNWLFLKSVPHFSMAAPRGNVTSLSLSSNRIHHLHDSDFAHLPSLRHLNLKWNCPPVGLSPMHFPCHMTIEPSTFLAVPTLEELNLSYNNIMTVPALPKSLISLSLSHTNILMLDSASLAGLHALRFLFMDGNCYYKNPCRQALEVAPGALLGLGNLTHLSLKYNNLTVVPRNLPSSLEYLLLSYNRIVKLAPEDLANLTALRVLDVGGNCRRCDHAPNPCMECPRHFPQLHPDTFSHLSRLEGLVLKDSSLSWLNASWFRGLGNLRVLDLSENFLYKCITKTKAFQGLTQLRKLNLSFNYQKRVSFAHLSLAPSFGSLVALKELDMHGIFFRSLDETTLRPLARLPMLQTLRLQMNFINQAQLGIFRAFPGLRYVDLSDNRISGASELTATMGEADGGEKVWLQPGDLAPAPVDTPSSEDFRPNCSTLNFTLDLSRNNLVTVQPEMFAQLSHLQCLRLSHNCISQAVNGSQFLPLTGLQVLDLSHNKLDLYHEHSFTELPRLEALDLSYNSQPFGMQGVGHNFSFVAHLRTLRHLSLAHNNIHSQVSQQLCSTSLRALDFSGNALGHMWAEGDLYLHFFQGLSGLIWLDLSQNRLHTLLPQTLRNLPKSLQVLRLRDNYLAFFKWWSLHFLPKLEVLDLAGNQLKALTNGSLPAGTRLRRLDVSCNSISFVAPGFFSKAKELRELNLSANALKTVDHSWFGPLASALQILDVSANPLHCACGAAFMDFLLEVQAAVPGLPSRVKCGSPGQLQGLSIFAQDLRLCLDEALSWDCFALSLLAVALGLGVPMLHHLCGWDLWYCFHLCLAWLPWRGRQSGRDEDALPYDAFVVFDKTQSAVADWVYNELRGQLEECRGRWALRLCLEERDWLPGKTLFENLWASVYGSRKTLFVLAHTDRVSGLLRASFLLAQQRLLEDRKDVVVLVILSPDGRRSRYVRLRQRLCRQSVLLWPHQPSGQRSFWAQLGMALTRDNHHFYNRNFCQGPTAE
Protocol: (§1) TLR7/8/9 Inhibition Reporter Assays
(§2) HEK-Blue™-cells (Invivogen) overexpressing human TLR7, TLR8 or TLR9 receptors were used for screening inhibitors of these receptors using an inducible SEAP (secreted embryonic alkaline phosphatase) reporter gene under the control of the IFN-β minimal promoter fused to five NF-κB and AP-1-binding sites. Briefly, cells are seeded into Greiner 384 well plates (15000 cells per well for TLR7, 20,000 for TLR8 and 25,000 for TLR9) and then treated with test compounds in DMSO to yield a final dose response concentration range of 0.05 nM to 50 μM. After a 30 minute compound pre-treatment at room temperature, the cells are then stimulated with a TLR7 ligand (gardiquimod at a final concentration of 7.5 μM), TLR8 ligand (R848 at a final concentration of 15.9 μM) or TLR9 ligand (ODN2006 at a final concentration of 5 nM) to activate NF-κB and AP-1 which induce the production of SEAP. After a 22 hour incubation at 37° C., 5% CO2, SEAP levels are determined with the addition of HEK-Blue™ Detection reagent (Invivogen), a cell culture medium that allows for detection of SEAP, according to manufacturer's specifications. The percent inhibition is determined as the % reduction in the HEK-Blue signal present in wells treated with agonist plus DMSO alone compared to wells treated with a known inhibitor.

human TLR8 = target: T2, human TLR8 (Homo sapiens, UniProt Q9NR97); assay: TLR8 inhibition reporter assay (HEK-Blue SEAP); conditions: HEK-Blue cells overexpressing human TLR8, stimulated with R848 15.9 μM, 22 hour incubation
T2 construct: host or cells: HEK-Blue cells
T2 sequence (Q9NR97 27-1041): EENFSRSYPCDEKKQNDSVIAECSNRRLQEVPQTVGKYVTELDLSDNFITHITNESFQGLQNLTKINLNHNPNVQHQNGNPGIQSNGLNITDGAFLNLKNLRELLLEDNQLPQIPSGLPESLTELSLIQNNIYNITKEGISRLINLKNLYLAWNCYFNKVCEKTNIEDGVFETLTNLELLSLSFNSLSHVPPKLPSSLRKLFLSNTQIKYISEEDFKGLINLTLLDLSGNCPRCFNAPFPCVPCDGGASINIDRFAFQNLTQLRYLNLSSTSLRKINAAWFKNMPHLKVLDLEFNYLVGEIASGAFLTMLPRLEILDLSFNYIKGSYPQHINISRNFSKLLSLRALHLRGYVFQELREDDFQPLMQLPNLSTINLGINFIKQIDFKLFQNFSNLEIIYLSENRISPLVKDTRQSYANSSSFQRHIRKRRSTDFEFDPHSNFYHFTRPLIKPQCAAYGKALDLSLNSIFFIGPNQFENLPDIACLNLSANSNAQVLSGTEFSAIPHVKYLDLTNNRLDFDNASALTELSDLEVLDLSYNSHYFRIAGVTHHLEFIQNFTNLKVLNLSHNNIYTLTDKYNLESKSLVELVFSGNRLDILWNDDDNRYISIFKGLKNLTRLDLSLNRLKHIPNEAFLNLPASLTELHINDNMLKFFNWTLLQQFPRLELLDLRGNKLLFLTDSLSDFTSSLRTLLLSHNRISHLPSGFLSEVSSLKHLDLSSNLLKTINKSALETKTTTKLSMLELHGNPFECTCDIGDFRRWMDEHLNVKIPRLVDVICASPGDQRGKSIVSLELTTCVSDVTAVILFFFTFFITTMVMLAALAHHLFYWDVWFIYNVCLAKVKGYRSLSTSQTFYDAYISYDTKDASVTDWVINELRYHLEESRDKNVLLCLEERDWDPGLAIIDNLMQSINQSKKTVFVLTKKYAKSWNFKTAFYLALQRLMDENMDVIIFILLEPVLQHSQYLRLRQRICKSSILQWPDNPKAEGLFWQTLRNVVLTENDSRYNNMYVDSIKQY
Protocol: as §1, §2

human TLR7 = target: T3, human TLR7 (Homo sapiens, UniProt Q9NYK1); assay: TLR7 inhibition reporter assay (HEK-Blue SEAP); conditions: HEK-Blue cells overexpressing human TLR7, stimulated with gardiquimod 7.5 μM, 22 hour incubation
T3 construct: host or cells: HEK-Blue cells
T3 sequence (Q9NYK1 27-1049): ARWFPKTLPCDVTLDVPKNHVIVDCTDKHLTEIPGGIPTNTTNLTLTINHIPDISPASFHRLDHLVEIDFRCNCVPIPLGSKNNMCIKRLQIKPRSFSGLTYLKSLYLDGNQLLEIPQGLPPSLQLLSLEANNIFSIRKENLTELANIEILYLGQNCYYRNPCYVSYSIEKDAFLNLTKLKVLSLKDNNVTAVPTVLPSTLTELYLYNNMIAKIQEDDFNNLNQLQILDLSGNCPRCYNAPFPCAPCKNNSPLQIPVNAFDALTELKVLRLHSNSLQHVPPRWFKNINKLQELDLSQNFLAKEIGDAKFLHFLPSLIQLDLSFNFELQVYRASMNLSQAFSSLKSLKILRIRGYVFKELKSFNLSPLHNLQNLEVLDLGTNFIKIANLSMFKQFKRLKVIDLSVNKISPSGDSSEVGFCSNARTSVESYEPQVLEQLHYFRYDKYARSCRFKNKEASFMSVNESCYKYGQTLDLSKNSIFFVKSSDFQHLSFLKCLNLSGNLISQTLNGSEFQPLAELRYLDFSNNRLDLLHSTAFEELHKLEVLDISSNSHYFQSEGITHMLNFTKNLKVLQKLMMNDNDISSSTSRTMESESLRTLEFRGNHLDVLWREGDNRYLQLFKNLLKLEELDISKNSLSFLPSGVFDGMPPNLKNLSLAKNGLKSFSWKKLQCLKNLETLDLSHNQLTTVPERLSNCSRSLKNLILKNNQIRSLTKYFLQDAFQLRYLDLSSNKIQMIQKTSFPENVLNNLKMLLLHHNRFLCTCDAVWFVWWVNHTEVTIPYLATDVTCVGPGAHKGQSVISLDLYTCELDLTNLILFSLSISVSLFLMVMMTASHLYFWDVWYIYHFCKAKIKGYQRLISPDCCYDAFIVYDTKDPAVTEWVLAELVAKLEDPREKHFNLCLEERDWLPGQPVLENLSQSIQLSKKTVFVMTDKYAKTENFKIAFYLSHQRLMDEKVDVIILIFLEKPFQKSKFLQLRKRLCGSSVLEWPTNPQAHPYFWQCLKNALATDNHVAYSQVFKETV
Protocol: as §1, §2

Compound: CCc1cc2c(C3CCC(N(C)C)CC3)n[nH]c2cc1-c1cc(C)c2ncnn2c1 (single isomer, unassigned) [Example 93, 4-(5-ethyl-6-(8-methyl-[1,2,4]triazolo[1,5-a]pyridin-6-yl)-1H-indazol-3-yl)-N,N-dimethylcyclohexan-1-amine]
- IC50 (human TLR9): 6120 nM
- IC50 (human TLR8): 0.1 nM
- IC50 (human TLR7): 0.8 nM

Compound: CCc1cc2c(C3CCC(N(C)C)CC3)n[nH]c2cc1-c1cc(C)c2ncnn2c1 (single isomer, unassigned) [Example 94, 4-(5-ethyl-6-(8-methyl-[1,2,4]triazolo[1,5-a]pyridin-6-yl)-1H-indazol-3-yl)-N,N-dimethylcyclohexan-1-amine]
- IC50 (human TLR9): 10300 nM
- IC50 (human TLR8): 0.5 nM
- IC50 (human TLR7): 3 nM

Compound: CCc1cc2c(C3CCC(NC4CC4)CC3)n[nH]c2cc1-c1cc(C)c2ncnn2c1 (single isomer, unassigned) [Example 97, N-cyclopropyl-4-(5-ethyl-6-(8-methyl-[1,2,4]triazolo[1,5-a]pyridin-6-yl)-1H-indazol-3-yl)cyclohexan-1-amine]
- IC50 (human TLR9): 5450 nM
- IC50 (human TLR8): 0.1 nM
- IC50 (human TLR7): 0.6 nM

Compound: CCc1cc2c(C3CCC(NC4CC4)CC3)n[nH]c2cc1-c1cc(C)c2ncnn2c1 (single isomer, unassigned) [Example 98, N-cyclopropyl-4-(5-ethyl-6-(8-methyl-[1,2,4]triazolo[1,5-a]pyridin-6-yl)-1H-indazol-3-yl)cyclohexan-1-amine]
- IC50 (human TLR9): 6570 nM
- IC50 (human TLR8): 0.2 nM
- IC50 (human TLR7): 2.5 nM

Compound: CCc1cc2c(C3CCC(NCCS(C)(=O)=O)CC3)n[nH]c2cc1-c1cc(C)c2ncnn2c1 (single isomer, unassigned) [Example 99, 4-(5-ethyl-6-(8-methyl-[1,2,4]triazolo[1,5-a]pyridin-6-yl)-1H-indazol-3-yl)-N-(2-(methylsulfonyl)ethyl)cyclohexan-1-amine]
- IC50 (human TLR9): 14000 nM
- IC50 (human TLR8): 0.1 nM
- IC50 (human TLR7): 0.9 nM

Compound: CCc1cc2c(C3CCC(NCCS(C)(=O)=O)CC3)n[nH]c2cc1-c1cc(C)c2ncnn2c1 (single isomer, unassigned) [Example 100, 4-(5-ethyl-6-(8-methyl-[1,2,4]triazolo[1,5-a]pyridin-6-yl)-1H-indazol-3-yl)-N-(2-(methylsulfonyl)ethyl)cyclohexan-1-amine]
- IC50 (human TLR9): 17500 nM
- IC50 (human TLR8): 0.2 nM
- IC50 (human TLR7): 7.5 nM

Compound: Cc1cc(-c2cc3[nH]nc(C4CCC(NC5CC5)CC4)c3cc2C(C)C)cn2ncnc12 (single isomer, unassigned) [Example 118, N-cyclopropyl-4-(5-isopropyl-6-(8-methyl-[1,2,4]triazolo[1,5-a]pyridin-6-yl)-1H-indazol-3-yl)cyclohexan-1-amine]
- IC50 (human TLR9): 4130 nM
- IC50 (human TLR8): 0.1 nM
- IC50 (human TLR7): 0.3 nM

Compound: Cc1cc(-c2cc3[nH]nc(C4CCC(NC5CC5)CC4)c3cc2C(C)C)cn2ncnc12 (single isomer, unassigned) [Example 119, N-cyclopropyl-4-(5-isopropyl-6-(8-methyl-[1,2,4]triazolo[1,5-a]pyridin-6-yl)-1H-indazol-3-yl)cyclohexan-1-amine]
- IC50 (human TLR9): 4920 nM
- IC50 (human TLR8): 0.1 nM
- IC50 (human TLR7): 1 nM

Compound: Cc1cc(-c2cc3[nH]nc(C4CCC(NCC(=O)N(C)C)CC4)c3cc2C(C)C)cn2ncnc12 (single isomer, unassigned) [Example 125, 2-((4-(5-isopropyl-6-(8-methyl-[1,2,4]triazolo[1,5-a]pyridin-6-yl)-1H-indazol-3-yl)cyclohexyl)amino)-N,N-dimethylacetamide]
- IC50 (human TLR9): 12100 nM
- IC50 (human TLR8): 0.3 nM
- IC50 (human TLR7): 2.5 nM

Compound: Cc1cc(-c2cc3[nH]nc(C4CCC(N5CC6(COC6)C5)CC4)c3cc2C(C)C)cn2ncnc12 (single isomer, unassigned) [Example 128, 6-(4-(5-isopropyl-6-(8-methyl-[1,2,4]triazolo[1,5-a]pyridin-6-yl)-1H-indazol-3-yl)cyclohexyl)-2-oxa-6-azaspiro[3.3]heptane]
- IC50 (human TLR9): 9560 nM
- IC50 (human TLR8): 0.2 nM
- IC50 (human TLR7): 0.6 nM

Compound: Cc1cc(-c2cc3[nH]nc(C4CCC(N5CC6(COC6)C5)CC4)c3cc2C(C)C)cn2ncnc12 (single isomer, unassigned) [Example 129, 6-(4-(5-isopropyl-6-(8-methyl-[1,2,4]triazolo[1,5-a]pyridin-6-yl)-1H-indazol-3-yl)cyclohexyl)-2-oxa-6-azaspiro[3.3]heptane]
- IC50 (human TLR9): 7550 nM
- IC50 (human TLR8): 0.5 nM
- IC50 (human TLR7): 4.1 nM
